In the NIST ThermoML archive (doi:10.1021/je100484n):

Legend:
[1] = xn = mol fraction of the nth substance listed; conditions: 101 kPa, Liquid
[2] = refractive index (Na D-line) (dimensionless); xn = mol fraction of the nth substance listed; conditions: 101 kPa, Liquid

CC(C)(C)O [2-methylpropan-2-ol] + CCCCCCC
Conditions	mass density, 303.15 K [kg/m3]	mass density, 308.15 K [kg/m3]	mass density, 313.15 K [kg/m3]	mass density, 318.15 K [kg/m3]	mass density, 323.15 K [kg/m3]	refractive index, 303.15 K	refractive index, 308.15 K	refractive index, 313.15 K	refractive index, 318.15 K	refractive index, 323.15 K
[1], x1 = 0.1006	679.898	675.406	670.867	666.278	661.645	–	–	–	–	–
[1], x1 = 0.1502	682.8	678.262	673.669	669.017	664.315	–	–	–	–	–
[1], x1 = 0.2	685.899	681.327	676.692	671.995	667.235	–	–	–	–	–
[1], x1 = 0.3	692.705	688.078	683.382	678.612	673.771	–	–	–	–	–
[1], x1 = 0.4	700.298	695.628	690.882	686.056	681.144	–	–	–	–	–
[1], x1 = 0.4998	708.705	703.995	699.207	694.329	689.366	–	–	–	–	–
[1], x1 = 0.6	718.327	713.568	708.726	703.799	698.776	–	–	–	–	–
[1], x1 = 0.7	729.448	724.603	719.685	714.683	709.587	–	–	–	–	–
[1], x1 = 0.7998	742.308	737.338	732.305	727.201	721.991	–	–	–	–	–
[1], x1 = 0.8479	749.34	744.297	739.195	734.015	728.76	–	–	–	–	–
[1], x1 = 0.8998	757.564	752.448	747.271	742.022	736.693	–	–	–	–	–
[1], x1 = 0.9499	766.164	760.994	755.749	750.424	745.02	–	–	–	–	–
[1], x1 = 1	775.412	770.193	764.884	759.488	754.015	–	–	–	–	–
[2], x1 = 0.1006	–	–	–	–	–	1.3814	1.37865	1.37591	1.37312	1.37031
[2], x1 = 0.1502	–	–	–	–	–	1.38092	1.37816	1.37539	1.37258	1.36973
[2], x1 = 0.2	–	–	–	–	–	1.38051	1.37775	1.37496	1.37213	1.36928
[2], x1 = 0.3	–	–	–	–	–	1.37984	1.37711	1.37431	1.37149	1.36865
[2], x1 = 0.4	–	–	–	–	–	1.37936	1.37667	1.37387	1.37108	1.36828
[2], x1 = 0.4998	–	–	–	–	–	1.37907	1.37641	1.3736	1.37085	1.36807
[2], x1 = 0.6	–	–	–	–	–	1.37899	1.37633	1.3735	1.37079	1.36801
[2], x1 = 0.7	–	–	–	–	–	1.37917	1.37649	1.37364	1.37094	1.36814
[2], x1 = 0.7998	–	–	–	–	–	1.37969	1.37697	1.37411	1.37139	1.36855
[2], x1 = 0.8479	–	–	–	–	–	1.38009	1.37735	1.37449	1.37175	1.36889
[2], x1 = 0.8998	–	–	–	–	–	1.38066	1.37791	1.37505	1.37229	1.36942
[2], x1 = 0.9499	–	–	–	–	–	1.38136	1.3786	1.37577	1.37297	1.37009
[2], x1 = 1	–	–	–	–	–	1.38222	1.37947	1.37667	1.37384	1.37097
